Assays:
[1] = system: carmine spider mite (Tetranychus cinnabarinus); assay: Spray and soil drench test against carmine spider mite on kidney bean (degree of damage); format: in vivo; design: key: -: Little damage is observed.; +: Slight damage is observed.; ++: Same damage as in the untreated plot is observed; conditions: 500 ppm spray plus soil drench, examined after 8 days
Description: Female adults of carmine spider mite (Tetranychus cinnabarinus) were made parasitic on the leaves of potted kidney bean in a primary leaf stage, at a rate of 10 adults per leaf, which had elapsed seven days after sowing, and stored in a constant-temperature room kept at 25°C. After six days, 15 ml of a dilute solution, previously prepared by diluting the emulsifiable concentrate of the following test compounds obtained according to Formulation example 1 with water so that the active ingredient concentration was 500 ppm, was sprayed thereon by means of a turn table. At the same time, soil drench was carried out with 2 ml of the dilute solution. After 8 days, the degree of damage of each kidney bean by mites was examined.
The degree of damage was classified into three stages, -, + and ++. - : Little damage is observed. + : Slight damage is observed. ++ : Same damage as in the untreated plot is observed.

[2] = system: root-knot nematodes (Meloidogyne sp.); assay: Soil treatment test against root-knot nematodes on tomato plants (degree of root-knot); format: in vivo; design: key: -: No settlement; - to +: Not more than 10% as compared with untreated plot; +: 10% - 40% as compared with untreated plot; ++: 40% - 80% as compared with untreated plot; +++: The same as or more than untreated plot; conditions: observed three weeks after planting
Description: The emulsifiable concentrate of each test compound formulated according to Formulation example 1 was diluted with water, and 5 ml of the resulting aqueous dilute liquor was mixed with 600 g of soil contaminated with root-knot nematodes (Meloidogyne sp.) to make the concentration of active ingredient in soil 4 or 1 ppm. The soil was placed in a polyethylene cup of 12 cm in diameter and 8 cm in height, and three tomato plants of 3 to 4 leaf stage were planted.

[3] = Acute oral toxicity in mouse (mortality); conditions: in vivo; oral (stomach sound), 100 mg/kg, ICR mouse, observed for 7 days, 5 head per group; read-out: Mortality (%) at the dose of 100 mg/kg
Description: After fasting of about 24 hours, ICR series mouse was weighed by an electronic balance. A stomack sound for mouse was attached to a syringe filled with test solution, the syringe end was slid to innermost of the mouse's throat to insert it to the stomack, and a definite amount of the test solution was injected. 4 Hours after the administration, a bait and water were given to the mouse for 7 days to observe a mortality (5 head per group).

[4] = system: southern corn rootworm (Diabrotica undecimpunctata howardi BABER); assay: Soil treatment test against southern corn rootworm larvae (mortality); format: in vivo; conditions: 48 h, 1 ppm active ingredient in soil, third instar larvae, two days after liberation
Description: The emulsifiable concentrate of each test compound formulated according to Formulation example 1 was diluted with water, and 5 ml of the resulting aqueous dilute liquor was mixed with 50 g of soil to make the concentration of active ingredient in soil 1 ppm. The soil was then placed in a polyethylene cup of 5.6 cm in diameter and 5.8 cm high, and two pieces of corn having roots of 2 to 3 cm long were planted. At the same time, ten third instar larvae of southern corn rootworm (Diabrotica undecimpunctata howardi BABER) were liberated in the cup. Two days after liberation, the number of the dead and alive larvae was counted to obtain mortality (%).

[5] = concentration in the soil 1 ppm
[6] = concentration in the soil 4 ppm

Row | Structure (SMILES) | Degree of damage [1] | Extent of settlement [2, 5] | Extent of settlement [2, 6] | mortality at 168 h [3] [%] | mortality at 1 ppm [4] [%]
1 | Cc1cc(Cl)ccc1/N=C/N(C)C [Chlorodimeform] | + |  |  |  | 
2 | CCOP(=O)(Oc1ccccc1)SC(C)CC (stereo not drawn) [(C)] |  | +++ | - to + (Not more than 10% as compared with untreated plot) | 100 | 
3 | CCCSP(=O)(OCC)Oc1ccccc1 (stereo not drawn) [(A)] |  |  |  | 100 | 70
4 | CCOP(=O)(Oc1ccccc1)SC(C)(C)C (stereo not drawn) [Present compound, S-tert-butyl O-ethyl O-phenyl phosphorothiolate] | - | - to + (Not more than 10% as compared with untreated plot) | - | 0 | 100
5 | CCOP(=O)(Oc1ccccc1)SC(C)C (stereo not drawn) [(B)] |  | +++ | + (10% - 40% as compared with untreated plot) | 100 | 0

Reference: EP0278661A1, “A thiophosphoric acid ester as an insecticide, nematocide and acaricide” (priority 1987, dated 1988)
